# Key:
# rat [1] = conditions: Combined chronic toxicity/carcinogenicity; fischer; Oral; Feed; dose end: 104 week; group: systemic; systemic / pathology microscopic / stomach / adenocarcinoma + systemic / pathology microscopic / stomach / adenoma + systemic / in life …
# mouse [2] = conditions: Carcinogenicity; b6c3f1; Oral; Feed; dose end: 96 week; group: systemic; systemic / pathology microscopic / stomach / adenoma + systemic / in life observation / body weight / body weight + systemic / in life …
# dog [3] = conditions: Chronic toxicity, beagle, Oral, Feed, dose end: 394 day, group: systemic
# dog [4] = conditions: Subchronic oral toxicity in nonrodent, beagle, Feed, dose end: 98 day, group: systemic
# rat [5] = conditions: Subchronic oral toxicity in rodents, wistar, Feed, dose end: 90 day, group: systemic
# rat [6] = conditions: Multigenerational reproductive toxicity study, wistar, Oral, Feed, dose end: 2 generation
# rat [7] = conditions: Prenatal developmental toxicity study, wistar, Oral, Gavage/Intubation, dose end: 20 GD
# mouse [8] = conditions: Carcinogenicity, cd1, Oral, Feed, dose end: 78 week, group: systemic
# mouse [9] = conditions: Subchronic oral toxicity in rodents, cd1, Feed, dose end: 90 day, group: systemic, systemic / organ weight / liver / relative to body weight + systemic / organ weight / liver / absolute + systemic / clinical chemistry / …
# [10] = systemic / clinical chemistry / alkaline phosphatase (alp/alk) / alkaline phosphatase (alp/alk) + systemic / clinical chemistry / gamma …
# [11] = systemic / pathology microscopic / kidney / pigmentation
# [12] = systemic / in life observation / body weight / body weight gain + systemic / in life observation / food consumption / food efficiency + …
# [13] = systemic / hematology / hemoglobin (hgb) / hemoglobin (hgb)
# [14] = systemic / in life observation / body weight / body weight + systemic / in life observation / body weight / body weight gain + systemic / in…
# [15] = group: offspring, developmental / developmental malformation / bone / incomplete ossification + developmental / developmental landmark / preputial separation…
# [16] = group: parental, systemic / in life observation / body weight / body weight gain
# [17] = group: developmental, developmental / developmental malformation / bone / incomplete ossification
# [18] = group: maternal, systemic / organ weight / liver / absolute + systemic / organ weight / liver / relative to body weight
# [19] = systemic / clinical chemistry / alanine aminotransferase (alt/sgpt) / alanine aminotransferase (alt/sgpt) + systemic / clinical chemistry / …
structure (smiles),measurement,setting,value
Oc1ccccc1O [Catechol],LEL,rat [1],400 mg/kg/day
same,LOAEL,rat [1],> 400 mg/kg/day
same,NEL,rat [1],< 400 mg/kg/day
same,NOAEL,rat [1],≥ 400 mg/kg/day
same,LEL,mouse [2],1200 mg/kg/day
same,LOAEL,mouse [2],> 1200 mg/kg/day
same,NEL,mouse [2],< 1200 mg/kg/day
same,NOAEL,mouse [2],≥ 1200 mg/kg/day
CO/N=C(/C1=NOCCO1)c1ccccc1Oc1ncnc(Oc2ccccc2Cl)c1F [Fluoxastrobin],LOAEL,dog [3]; [10],7.7 mg/kg/day
same,NOAEL,dog [3]; [10],1.5 mg/kg/day
same,LEL,dog [3]; [11],0.7 mg/kg/day
same,NEL,dog [3]; [11],< 0.7 mg/kg/day
same,LEL,dog [4]; systemic / in life observation / body weight / body weight gain + systemic / in life observation / food consumption / food efficiency,3 mg/kg/day
same,LOAEL,dog [4]; [12],24.2 mg/kg/day
same,NEL,dog [4]; [12],1.4 mg/kg/day
same,NOAEL,dog [4]; [12],3 mg/kg/day
same,LEL,rat [5]; [13],21.5 mg/kg/day
same,NEL,rat [5]; [13],< 21.5 mg/kg/day
same,LOAEL,rat [5]; [14],580 mg/kg/day
same,NOAEL,rat [5]; [14],70.4 mg/kg/day
same,LEL,rat [6]; [15],862 mg/kg/day
same,LOAEL,rat [6]; [15],862 mg/kg/day
same,NEL,rat [6]; [15],77.4 mg/kg/day
same,NOAEL,rat [6]; [15],77.4 mg/kg/day
same,LEL,rat [6]; [16],665 mg/kg/day
same,LOAEL,rat [6]; [16],665 mg/kg/day
same,NEL,rat [6]; [16],70 mg/kg/day
same,NOAEL,rat [6]; [16],70 mg/kg/day
same,LEL,rat [7]; [17],300 mg/kg/day
same,LOAEL,rat [7]; [17],> 1000 mg/kg/day
same,NEL,rat [7]; [17],100 mg/kg/day
same,NOAEL,rat [7]; [17],≥ 1000 mg/kg/day
same,LEL,rat [7]; [18],1000 mg/kg/day
same,LOAEL,rat [7]; [18],> 1000 mg/kg/day
same,NEL,rat [7]; [18],300 mg/kg/day
same,NOAEL,rat [7]; [18],≥ 1000 mg/kg/day
same,LOAEL,mouse [8]; [19],> 776 mg/kg/day
same,NEL,mouse [8]; [19],19 mg/kg/day
same,NOAEL,mouse [8]; [19],≥ 776 mg/kg/day
same,LEL,mouse [8]; systemic / in life observation / body weight / body weight + systemic / organ weight / liver / relative to body weight,135 mg/kg/day
same,LEL,mouse [9],81.1 mg/kg/day
same,LOAEL,mouse [9],> 1300 mg/kg/day
same,NEL,mouse [9],< 81.1 mg/kg/day
same,NOAEL,mouse [9],≥ 1300 mg/kg/day

# From EPA's ToxRefDB 2
